The values that follow are results of earlier work, collected in US20260263368A1, “DOUBLE-RELEASE THREE-LAYERED BR[…] AND PREPARATION METHOD THEREOF” (TAIZHOU OVERSEAS PHARMACEUTICALS, LTD., priority 2023, published 2026).

For this data set the following is noted: background statement.

`CCC[C@@H]1CC(=O)N([C@@H](CC)C(N)=O)C1` [Brivaracetam, (2S)-2-[(4R)-2-oxo-4-propyltetrahydro-1H-pyrrol-1-yl]butanamide]: the water solubility entry is reported as “good water solubility”.
